Assay results as given in patent publication US12091431B2, “Crystals” (AEROMICS, INC., priority 2016, dated 2024).
≈ marks a conversion by molar mass, not a printed value. Where two headings read alike, the source gives them in different places.

Tests used:
Format in all cases: physicochemical
[1] = Dynamic vapor sorption (DVS); conditions: for XRPD of the post-DVS material (form change): after DVS sorption/desorption cycle; for hygroscopicity, weight gain from 5-95% RH: summary statement; for weight change upon desorption: DVS desorption after sorption to 95% RH
Protocol: Dynamic vapor sorption (DVS) data are collected on a VTI SGA-100 Vapor Sorption Analyzer. NaCl and PVP are used as calibration standards. Samples are not dried prior to analysis. Sorption and desorption data are collected over a range from 5% to 95% relative humidity (RH) at 10% RH increments under a nitrogen purge. The equilibrium criterion used for analysis is less than 0.0100% weight change in 5 minutes with a maximum equilibration time of 3 hours. Data are not corrected for the initial moisture content of the samples.

[2] = Stressing at elevated relative humidity; conditions: ~97% RH for 7 days
Protocol: The kinetic and thermodynamic hygroscopicity of Form A is assessed by DVS and stressing at elevated RH, respectively.

[3] = Vacuum drying attempts of Form A
Protocol: Several attempts to dry Form A are tried. Rigorous conditions are initially selected due to the high temperature range at which the TGA weight loss is observed (above 90° C.). Drying under vacuum at 80° C. for 1 day results in brown solids stuck to the vial.
A drying attempt under milder conditions is attempted. The experiment begins by drying under vacuum at ambient temperature. […] Minor weight loss is noted after 6 hours at 63-65° C., so the sample is held in the vacuum oven at this temperature for 1 day, resulting in 11% gravimetric weight loss.

[4] = Slurry in water at room temperature, form by XRPD
Protocol: The slurry is repeated for 19 hours to gauge how quickly the conversion occurs and results again in Form N, indicating form conversion within 19 hours (starting material is the product from this example and from Example 21).

Solubility in water = experiment: Solubility in water
[5] = Hydrolysis in the solid state; conditions: reversion to N-[3,5-bis(trifluoromethyl)phenyl]-5-chloro-2-hydroxybenzamide

In the case of `O=C(Nc1cc(C(F)(F)F)cc(C(F)(F)F)c1)c1cc(Cl)ccc1OP(=O)(O)O` [Form A, 2-{[3,5-bis(trifluoromethyl)phenyl]carbamoyl}-4-chlorophenyl dihydrogen phosphate ethyl acetate solvate], the “weight loss upon desorption between 95% and 5% RH” value ([1]; DVS desorption, 95% to 5% RH) is reported as 8.73%, the “moisture uptake between 5% and 95% RH” value ([1]; DVS sorption, 5% to 95% RH) is reported as 6.07 wt % and the “weight gain 5%-75% RH” value ([1]; DVS sorption, 5%-75% RH) is reported as 1.65%. The “weight gain 75%-95% RH” value ([1]; DVS sorption, 75%-95% RH) was 4.42%, the “weight loss upon equilibration at 5% RH” value ([1]; DVS, initial equilibration at 5% RH) was 0.76 wt % and the “XRPD of the post-DVS material (form change)” value (“XRPD … (form change)” below) [1] was “change to a disordered unknown material”. The “hygroscopicity, weight gain from 5-95% RH” value ([1]; DVS) was roughly 6%, the “form after stressing at elevated relative humidity” value [2] was “form change to a mixture of materials with a minor Form N (hydrate) component” and the “gravimetric weight loss on drying” value ([3]; under vacuum at 80° C. for 1 day) was 30%. For the same compound, the “gravimetric weight loss on drying” value ([3]; vacuum oven at 63-65° C. for 1 day) was 11% and the “outcome of vacuum drying at elevated temperature” value ([3]; vacuum, elevated temperature) was “decomposition and collapse of the crystalline structure”.
With `O=C(Nc1cc(C(F)(F)F)cc(C(F)(F)F)c1)c1cc(Cl)ccc1OP(=O)(O)O` [Form B, 2-{[3,5-bis(trifluoromethyl)phenyl]carbamoyl}-4-chlorophenyl dihydrogen phosphate] the “weight change upon desorption” value [1] was “All of this weight is lost”, the “weight gain upon sorption from 5% to 95% relative humidity” value ([1]; DVS sorption, 5% to 95% RH) was 0.6 weight % and the “weight loss at 5% relative humidity” value ([1]; DVS, 5% RH) was 0.04 weight %. For the same compound, the “XRPD … (form change)” value [1] was “no form change”, the “hygroscopicity, weight gain from 5-95% RH” value ([1]; DVS) was roughly 0.6% and the “form after stressing at elevated relative humidity” value [2] was “partial conversion to Form N”. For the same compound, the “time for form conversion to Form N in water slurry” value [4] was no more than 19 h and the “form after slurrying with water” value ([4]; 7 days, vacuum filtered) was “converts to Form N”.
For `O=C(Nc1cc(C(F)(F)F)cc(C(F)(F)F)c1)c1cc(Cl)ccc1OP(=O)(O)O` [Form N, 2-{[3,5-bis(trifluoromethyl)phenyl]carbamoyl}-4-chlorophenyl dihydrogen phosphate hydrate], the “weight change upon desorption” value [1] was “All of this weight is lost”, the “weight gain upon sorption from 5% to 95% relative humidity” value ([1]; DVS sorption, 5% to 95% RH, phosphate hydrate) was 3 weight % and the “weight loss upon equilibration to 5% relative humidity” value ([1]; DVS, initial equilibration to 5% RH, residual water likely) was 30%. For the same compound, the “XRPD … (form change)” value ([1]; phosphate hydrate) was “no form change” and the “hygroscopicity, weight gain from 5-95% RH” value ([1]; DVS, phosphate hydrate) was roughly 3%.
With `O=C(Nc1cc(C(F)(F)F)cc(C(F)(F)F)c1)c1cc(Cl)ccc1O` [N-[3,5-bis(trifluoromethyl)phenyl]-5-chloro-2-hydroxybenzamide] the solubility (Solubility in water; water, read-out: solubility in water) was 0.003 mg/mL (≈ 7.82 µM).
In the case of `NCCO.NCCO.O=C(Nc1cc(C(F)(F)F)cc(C(F)(F)F)c1)c1cc(Cl)ccc1OP(=O)(O)O` [bis ethanolamine salt, 2-((3,5-bis(trifluoromethyl)phenyl)carbamoyl)-4-chlorophenyl phosphate bis ethanolamine salt], the “hydrolysis in the solid state” value [5] is reported as 1 % per day.
For `O=C(Nc1cc(C(F)(F)F)cc(C(F)(F)F)c1)c1cc(Cl)ccc1OP(=O)([O-])[O-].[Na+].[Na+]` [bis sodium salt, 2-((3,5-bis(trifluoromethyl)phenyl)carbamoyl)-4-chlorophenyl phosphate bis sodium salt], the solubility (Solubility in water; pH 8.5 water, pH 8.5, aqueous buffer, read-out: solubility in pH 8.5 water) was 20 mg/mL and the “hydrolysis in the solid state” value [5] was 1 % per day.
For `O=C(Nc1cc(C(F)(F)F)cc(C(F)(F)F)c1)c1cc(Cl)ccc1OP(=O)([O-])O.[Na+]` [mono sodium salt, 2-((3,5-bis(trifluoromethyl)phenyl)carbamoyl)-4-chlorophenyl hydrogen phosphate mono sodium salt], the “hydrolysis in the solid state” value [5] was 1 % per day.
